The conditions of this data set: Liquid, Ebulliometric method (Recirculating still).

Numbers after ± are expanded uncertainties.

The values that follow come from the NIST ThermoML archive (doi:10.1021/je800591u).

A word on the vapor or sublimation pressure: it is the equilibrium pressure above the liquid or solid. Consider `FC(C(F)(F)F)C(F)(F)F` [1,1,1,2,3,3,3-heptafluoropropane], for which the “vapor or sublimation pressure” value (288.15 K) stood at 335 ± 14 kPa; the “vapor or sublimation pressure” value (303.15 K) came to 529 ± 14 kPa; the “vapor or sublimation pressure” value (318.15 K) worked out at 804 ± 14 kPa; the “vapor or sublimation pressure” value (333.15 K) was 1176 ± 15 kPa; the “vapor or sublimation pressure” value (348.15 K) was found to be 1664 ± 16 kPa; the “vapor or sublimation pressure” value (363.15 K) is given as 2294 ± 17 kPa.

On to `C=C(C)C` [2-methylpropene], for which the “vapor or sublimation pressure” value by setting is: (288.15 K) 223 ± 14 kPa; (303.15 K) 352 ± 14 kPa; (318.15 K) 536 ± 14 kPa; (333.15 K) 785 ± 14 kPa; (348.15 K) 1107 ± 15 kPa; (363.15 K) 1515 ± 15 kPa.
